Experimental data reported in PubChem BioAssay (NCI).
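In this assay, cells in 96-well plates receive the compound at five concentrations for 48 hours. Endpoints are linearly interpolated between the surrounding concentrations. Definition used: TGI = concentration required for complete inhibition of growth.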

Experiments:
Test in all cases: DTP human tumour cell line panel, 48 h
NCI-H522 lung = test system: NCI-H522 lung
UO-31 renal = test system: UO-31 renal
SNB-19 CNS = test system: SNB-19 CNS
CCRF-CEM leukemia = test system: CCRF-CEM leukemia
A549 NSCLC = test system: A549 NSCLC
HCC-2998 colon = test system: HCC-2998 colon
U251 CNS = test system: U251 CNS
SN12C renal = test system: SN12C renal
NCI-H226 lung = test system: NCI-H226 lung
BT-549 breast = test system: BT-549 breast
IGROV1 ovarian = test system: IGROV1 ovarian
SF-539 CNS = test system: SF-539 CNS
UACC-257 melanoma = test system: UACC-257 melanoma
PC-3 prostate = test system: PC-3 prostate
SF-295 CNS = test system: SF-295 CNS
HCT-116 colon = test system: HCT-116 colon
OVCAR-4 ovarian = test system: OVCAR-4 ovarian
SW-620 colon = test system: SW-620 colon
UACC-62 melanoma = test system: UACC-62 melanoma
OVCAR-8 ovarian = test system: OVCAR-8 ovarian
MALME-3M melanoma = test system: MALME-3M melanoma
RPMI-8226 leukemia = test system: RPMI-8226 leukemia
MDA-MB-231 breast = test system: MDA-MB-231 breast
OVCAR-5 ovarian = test system: OVCAR-5 ovarian
NCI/ADR-RES ovarian = test system: NCI/ADR-RES ovarian
786-0 renal = test system: 786-0 renal
COLO 205 colon = test system: COLO 205 colon
SK-MEL-2 melanoma = test system: SK-MEL-2 melanoma
DU-145 prostate = test system: DU-145 prostate
SK-MEL-28 melanoma = test system: SK-MEL-28 melanoma
HL-60(TB) leukemia = test system: HL-60(TB) leukemia
K-562 leukemia = test system: K-562 leukemia
MDA-N = test system: MDA-N
SK-OV-3 ovarian = test system: SK-OV-3 ovarian
MOLT-4 leukemia = test system: MOLT-4 leukemia
SR leukemia = test system: SR leukemia
ACHN renal = test system: ACHN renal
MDA-MB-435 = test system: MDA-MB-435
HOP-92 NSCLC = test system: HOP-92 NSCLC
EKVX NSCLC = test system: EKVX NSCLC
HS 578T breast = test system: HS 578T breast
HCT-15 colon = test system: HCT-15 colon
TK-10 renal = test system: TK-10 renal
OVCAR-3 ovarian = test system: OVCAR-3 ovarian
NCI-H460 lung = test system: NCI-H460 lung
MCF7 breast = test system: MCF7 breast
LOX IMVI melanoma = test system: LOX IMVI melanoma
KM12 colon = test system: KM12 colon
NCI-H23 lung = test system: NCI-H23 lung
M14 melanoma = test system: M14 melanoma
HT29 colon = test system: HT29 colon
SF-268 CNS = test system: SF-268 CNS
HOP-62 NSCLC = test system: HOP-62 NSCLC
CAKI-1 renal = test system: CAKI-1 renal
SNB-75 CNS = test system: SNB-75 CNS
A498 renal = test system: A498 renal
SK-MEL-5 melanoma = test system: SK-MEL-5 melanoma
T-47D breast = test system: T-47D breast
RXF 393 renal = test system: RXF 393 renal

`Cc1nc2ccc(S(=O)(=O)Nc3ccc(Cl)cc3)cc2c(=O)n1NC(=O)CNc1ccc(Cl)cc1` was tested. Which TGI (NCI-H522 lung) did it give?
Its TGI is greater than 100 µM.

What about the TGI (UO-31 renal) of the same compound?
Its TGI is greater than 100 µM.

What about the TGI (SNB-19 CNS) of the same compound?
The TGI was greater than 100 µM.

What about the TGI (CCRF-CEM leukemia) of the same compound?
Its TGI is greater than 100 µM.

What about the TGI (A549 NSCLC) of the same compound?
The TGI was greater than 100 µM.

And the TGI (HCC-2998 colon)?
Its TGI is greater than 100 µM.

What about the TGI (U251 CNS) of the same compound?
Its TGI is greater than 100 µM.

What about the TGI (SN12C renal) of the same compound?
Its TGI is greater than 100 µM.

And the TGI (NCI-H226 lung)?
Its TGI is greater than 100 µM.

And the TGI (BT-549 breast)?
Its TGI is greater than 100 µM.

And the TGI (IGROV1 ovarian)?
Its TGI is greater than 100 µM.

And the TGI (SF-539 CNS)?
The TGI was greater than 100 µM.

And the TGI (UACC-257 melanoma)?
Its TGI is greater than 100 µM.

And the TGI (PC-3 prostate)?
Its TGI is greater than 100 µM.

What about the TGI (SF-295 CNS) of the same compound?
The TGI was greater than 100 µM.

What about the TGI (HCT-116 colon) of the same compound?
Its TGI is greater than 100 µM.

What about the TGI (OVCAR-4 ovarian) of the same compound?
The TGI was greater than 100 µM.

What about the TGI (SW-620 colon) of the same compound?
Its TGI is greater than 100 µM.

What about the TGI (UACC-62 melanoma) of the same compound?
The TGI was greater than 100 µM.

And the TGI (OVCAR-8 ovarian)?
Its TGI is greater than 100 µM.

And the TGI (MALME-3M melanoma)?
The TGI was greater than 100 µM.

What about the TGI (RPMI-8226 leukemia) of the same compound?
Its TGI is greater than 100 µM.

What about the TGI (MDA-MB-231 breast) of the same compound?
Its TGI is greater than 100 µM.

And the TGI (OVCAR-5 ovarian)?
The TGI was greater than 100 µM.

And the TGI (NCI/ADR-RES ovarian)?
The TGI was greater than 100 µM.

What about the TGI (786-0 renal) of the same compound?
The TGI was greater than 100 µM.

And the TGI (COLO 205 colon)?
The TGI was greater than 100 µM.

And the TGI (SK-MEL-2 melanoma)?
Its TGI is greater than 100 µM.

And the TGI (DU-145 prostate)?
The TGI was greater than 100 µM.

What about the TGI (SK-MEL-28 melanoma) of the same compound?
Its TGI is greater than 100 µM.

And the TGI (HL-60(TB) leukemia)?
Its TGI is greater than 100 µM.

And the TGI (K-562 leukemia)?
Its TGI is greater than 100 µM.

And the TGI (MDA-N)?
Its TGI is greater than 100 µM.

What about the TGI (SK-OV-3 ovarian) of the same compound?
The TGI was greater than 100 µM.

What about the TGI (MOLT-4 leukemia) of the same compound?
The TGI was greater than 100 µM.

What about the TGI (SR leukemia) of the same compound?
Its TGI is greater than 100 µM.

And the TGI (ACHN renal)?
Its TGI is greater than 100 µM.

What about the TGI (MDA-MB-435) of the same compound?
The TGI was greater than 100 µM.

What about the TGI (HOP-92 NSCLC) of the same compound?
The TGI was greater than 100 µM.

And the TGI (EKVX NSCLC)?
The TGI was greater than 100 µM.

And the TGI (HS 578T breast)?
The TGI was greater than 100 µM.

And the TGI (HCT-15 colon)?
Its TGI is greater than 100 µM.

What about the TGI (TK-10 renal) of the same compound?
Its TGI is greater than 100 µM.

What about the TGI (OVCAR-3 ovarian) of the same compound?
Its TGI is greater than 100 µM.

And the TGI (NCI-H460 lung)?
Its TGI is greater than 100 µM.

And the TGI (MCF7 breast)?
Its TGI is greater than 100 µM.

And the TGI (LOX IMVI melanoma)?
Its TGI is greater than 100 µM.

What about the TGI (KM12 colon) of the same compound?
Its TGI is greater than 100 µM.

And the TGI (NCI-H23 lung)?
The TGI was greater than 100 µM.

What about the TGI (M14 melanoma) of the same compound?
The TGI was greater than 100 µM.

And the TGI (HT29 colon)?
The TGI was greater than 100 µM.

And the TGI (SF-268 CNS)?
The TGI was greater than 100 µM.

And the TGI (HOP-62 NSCLC)?
Its TGI is greater than 100 µM.

What about the TGI (CAKI-1 renal) of the same compound?
Its TGI is greater than 100 µM.

And the TGI (SNB-75 CNS)?
Its TGI is greater than 100 µM.

What does the source list for `CSc1nc(NC2CCCC2)c2cc[nH]c2n1`?
TGI (NCI-H522 lung): > 100 µM; TGI (UO-31 renal): > 100 µM; TGI (SNB-19 CNS): > 100 µM; TGI (CCRF-CEM leukemia): > 100 µM; TGI (A549 NSCLC): > 100 µM; TGI (HCC-2998 colon): > 100 µM; TGI (U251 CNS): > 100 µM; TGI (SN12C renal): > 100 µM; TGI (NCI-H226 lung): > 100 µM; TGI (BT-549 breast): > 100 µM; TGI (IGROV1 ovarian): > 100 µM; TGI (SF-539 CNS): > 100 µM; TGI (UACC-257 melanoma): > 100 µM; TGI (PC-3 prostate): > 100 µM; TGI (SF-295 CNS): > 100 µM; TGI (HCT-116 colon): > 100 µM; TGI (OVCAR-4 ovarian): > 100 µM; TGI (SW-620 colon): > 100 µM; TGI (UACC-62 melanoma): > 100 µM; TGI (OVCAR-8 ovarian): > 100 µM; TGI (MALME-3M melanoma): > 100 µM; TGI (RPMI-8226 leukemia): > 100 µM; TGI (MDA-MB-231 breast): > 100 µM; TGI (A498 renal): 80.3 µM; TGI (NCI/ADR-RES ovarian): > 100 µM; TGI (SK-MEL-5 melanoma): 96.6 µM; TGI (786-0 renal): > 100 µM; TGI (COLO 205 colon): > 100 µM; TGI (T-47D breast): > 100 µM; TGI (DU-145 prostate): > 100 µM; TGI (SK-MEL-28 melanoma): > 100 µM; TGI (HL-60(TB) leukemia): 47.4 µM; TGI (K-562 leukemia): > 100 µM; TGI (MDA-N): > 100 µM; TGI (SK-OV-3 ovarian): > 100 µM; TGI (MOLT-4 leukemia): > 100 µM; TGI (SR leukemia): 61.6 µM; TGI (ACHN renal): > 100 µM; TGI (MDA-MB-435): > 100 µM; TGI (RXF 393 renal): > 100 µM; TGI (HOP-92 NSCLC): > 100 µM; TGI (EKVX NSCLC): > 100 µM; TGI (HS 578T breast): > 100 µM; TGI (HCT-15 colon): > 100 µM; TGI (TK-10 renal): > 100 µM; TGI (OVCAR-3 ovarian): > 100 µM; TGI (NCI-H460 lung): > 100 µM; TGI (MCF7 breast): > 100 µM; TGI (LOX IMVI melanoma): > 100 µM; TGI (KM12 colon): > 100 µM; TGI (NCI-H23 lung): > 100 µM; TGI (M14 melanoma): > 100 µM; TGI (HT29 colon): > 100 µM; TGI (SF-268 CNS): > 100 µM; TGI (HOP-62 NSCLC): > 100 µM; TGI (CAKI-1 renal): > 100 µM
